Data on 42 molecules can be found in patent US20260325540A1 (priority 2023, published 2026).

For assay [1], the target named is SARS-CoV-2 3CLpro (Severe acute respiratory syndrome coronavirus 2, UniProt P0DTD1). Put plainly: FRET based protease assay, SARS-CoV-2 3CL. Format: biochemical, SARS-CoV-2 (strain BetaCoV/Wuhan/WIV04/2019).
Assay [2] addresses MERS-CoV 3CLpro (Middle East respiratory syndrome-related coronavirus, UniProt K9N638). Put plainly: biochemical. To be noted: MERS IC50, 75 nM MERS-CoV 3CLpro, 6 μM peptide 1 substrate, 25° C., 1.5 hrs, pH 7.5.

pIC50: −log10 of the molar value.

Sequence of MERS-CoV 3CLpro (K9N638 3248-3553 limits assumed): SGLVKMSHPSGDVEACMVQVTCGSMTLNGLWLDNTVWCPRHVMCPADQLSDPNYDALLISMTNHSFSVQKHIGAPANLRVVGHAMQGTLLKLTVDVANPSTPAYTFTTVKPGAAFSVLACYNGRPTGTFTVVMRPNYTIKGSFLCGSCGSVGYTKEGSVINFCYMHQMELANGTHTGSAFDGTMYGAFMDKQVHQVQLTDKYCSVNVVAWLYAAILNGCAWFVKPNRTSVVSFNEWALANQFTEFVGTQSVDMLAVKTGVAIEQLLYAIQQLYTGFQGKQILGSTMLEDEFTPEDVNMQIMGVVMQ

`CC(C)(C)OC(=O)N[C@H]1CCCC[C@H]2CNC(=O)[C@H]2C[C@@H](C#N)NC(=O)[C@H]2N(CC(F)(F)C2(C)C)C1=O` [Example 146]: the pIC50 in assay [1] and in assay [2] was 6.00 to 7.00 each time.

Regarding `CC1(C)[C@@H]2[C@H]3C(=O)N[C@H](C#N)C[C@@H]4C(=O)NC[C@@H]4CCCC[C@H](NC(=O)c4ccc(F)c(C(F)(F)F)c4)C(=O)N3C[C@@H]21` [Example 116], the pIC50 in assay [1] and in assay [2] was greater than 7.00 throughout.

Turning to `CC1(C)[C@@H]2[C@H]3C(=O)N[C@H](C#N)C[C@@H]4C(=O)NC[C@@H]4CCCC[C@H](NS(=O)(=O)c4ccccc4)C(=O)N3C[C@@H]21` [Example 154], the pIC50 in assay [1] and in assay [2] was greater than 7.00 in each case.

Take `CC1(C)[C@@H]2[C@H]3C(=O)N[C@H](C#N)C[C@@H]4C(=O)NC[C@@H]4CCCC[C@H](NC(=O)c4cc(Cl)ccc4Cl)C(=O)N3C[C@@H]21` [Example 133]: the pIC50 in assay [1] and in assay [2] was greater than 7.00 in each case.

For `CC1(C)[C@@H]2[C@H]3C(=O)N[C@H](C#N)C[C@@H]4C(=O)NC[C@@H]4CCCC[C@H](NC(=O)C4CC(F)(F)C4)C(=O)N3C[C@@H]21` [Example 62], the pIC50 in assay [1] and in assay [2] was greater than 7.00 in each case.

For `CC(C)C[C@@H]1NC(=O)[C@@H](Cc2ccccc2)CCCC[C@H]2CNC(=O)[C@H]2C[C@@H](C=O)NC1=O` [Example 36], the pIC50 in assay [1] is greater than 7.00; in assay [2], 6.00 to 7.00.

Turning to `CC(C)C[C@@H]1NC(=O)CCCC[C@@H]2CNC(=O)[C@@H]2C[C@@H](C=O)NC1=O` [Example 1], the pIC50 in assay [1] is 4.70 to 6.00; in assay [2], less than 4.70.

Regarding `CC(C)(C)C[C@@H]1NC(=O)[C@@H](NC(=O)c2ccc(F)c(C(F)(F)F)c2)CCCC[C@H]2CNC(=O)[C@H]2C[C@@H](C#N)NC1=O` [Example 142], the pIC50 in assay [1] and in assay [2] was 6.00 to 7.00 each time.

For `CC(C)(C)OC(=O)N[C@H]1CCCC[C@H]2CCNC(=O)[C@H]2C[C@@H](C#N)NC(=O)[C@@H]2[C@@H]3[C@H](CN2C1=O)C3(C)C` [Example 110], the pIC50 in assay [1] was greater than 7.00; in assay [2], 6.00 to 7.00.

As for `CC(C)C[C@@H]1NC(=O)[C@@H](C2CCCC2)CCC[C@H]2CNC(=O)[C@H]2C[C@@H](C=O)NC1=O` [Example 13], the pIC50 in assay [1] and in assay [2] was 4.70 to 6.00 each time.

As for `CC(C)(C)OC(=O)N[C@H]1CCCC[C@H]2CNC(=O)[C@H]2C[C@@H](C#N)NC(=O)[C@@H]2CC3(CC3)CN2C1=O` [Example 105], the pIC50 in assay [1] and in assay [2] was 6.00 to 7.00 in each case.

On to `CC1(C)[C@@H]2[C@H]3C(=O)N[C@H](C#N)C[C@@H]4C(=O)NC[C@@H]4CCCC[C@H](Nc4nccc(C(F)(F)F)n4)C(=O)N3C[C@@H]21` [Example 162], for which the pIC50 in assay [1] is greater than 7.00; in assay [2], 6.00 to 7.00.

Consider `CC(C)C[C@@H]1NC(=O)[C@@H](OC(C)(C)C)CCC[C@H]2CNC(=O)[C@@H]2C[C@@H](C#N)NC1=O` [Example 29], for which the pIC50 in assay [1] and in assay [2] was less than 4.70 each time.

As to `CC(C)C[C@@H]1NC(=O)CCCCC[C@@H]2CCNC(=O)[C@H]2C[C@@H](C=O)NC1=O` [Example 33], the pIC50 in assay [1] and in assay [2] was less than 4.70 each time.

As to `CC1(C(=O)N[C@H]2CCCC[C@H]3CNC(=O)[C@H]3C[C@@H](C#N)NC(=O)[C@@H]3[C@@H]4[C@H](CN3C2=O)C4(C)C)COC1` [Example 123], the pIC50 is greater than 7.00 in assay [1] and 6.00 to 7.00 in assay [2].

On to `CC(C)C[C@@H]1NC(=O)[C@@H](C2CCCC2)CCC[C@H]2CNC(=O)[C@@H]2C[C@@H](C#N)NC1=O` [Example 28], for which the pIC50 in assay [1] and in assay [2] was 4.70 to 6.00 each time.

Consider `CC1(C)[C@@H]2[C@H]3C(=O)N[C@H](C#N)C[C@@H]4C(=O)NC[C@@H]4CCCC[C@H](NC(=O)CC4CCCC4)C(=O)N3C[C@@H]21` [Example 90], for which the pIC50 was greater than 7.00 in assay [1] and 6.00 to 7.00 in assay [2].

For `CC(C)(C)OC(=O)N[C@H]1CCCC[C@H]2CCNC(=O)C2C[C@@H](C#N)NC(=O)[C@@H]2[C@H]3CCC[C@H]3CN2C1=O` (stereo partly drawn) [Example 98], the pIC50 in assay [1] and in assay [2] was 6.00 to 7.00 throughout.

As to `CC(C)C[C@@H]1NC(=O)[C@@H](NC(=O)C(C)(C)C)CC/C=C\[C@H]2CNC(=O)[C@H]2C[C@@H](C#N)NC1=O` [Example 59], the negative-log IC50 (pIC50) in assay [1] was 6.00 to 7.00; in assay [2], 4.70 to 6.00.

As for `CC(C)C[C@@H]1NC(=O)CCCCC[C@H]2CNC(=O)[C@H]2C[C@@H](C#N)NC1=O` [Example 38], the pIC50 in assay [1] is 4.70 to 6.00; in assay [2] it was less than 4.70.

As for `CC(C)(F)C[C@@H]1NC(=O)[C@@H](NC(=O)OC(C)(C)C)CCCC[C@H]2CNC(=O)[C@H]2C[C@@H](C#N)NC1=O` [Example 138], the pIC50 in assay [1] and in assay [2] was 6.00 to 7.00 each time.

Regarding `CC(C)C[C@@H]1NC(=O)[C@@H](Cc2cccc(C(F)(F)F)c2)CCCC[C@H]2CNC(=O)[C@H]2C[C@@H](C#N)NC1=O` [Example 40], the pIC50 in assay [1] and in assay [2] was 4.70 to 6.00 throughout.

Regarding `CC(C)C[C@@H]1NC(=O)[C@@H](NC(=O)OC(C)(C)C)CCC[C@@H]2CNC(=O)[C@@H]2C[C@@H](C=O)NC1=O` [Example 16], the pIC50 in assay [1] is 6.00 to 7.00; in assay [2] it was 4.70 to 6.00.

On to `CC(C)(C)C(=O)N[C@H]1CCCC[C@H]2CNC(=O)[C@H]2C[C@@H](C#N)NC(=O)[C@@H]2[C@H]3CCC[C@H]3CN2C1=O` [Example 70], for which the pIC50 in assay [1] was greater than 7.00; in assay [2], 6.00 to 7.00.

As to `N#C[C@@H]1C[C@@H]2C(=O)NC[C@@H]2CCCC[C@H](NC(=O)OC2CCCC2)C(=O)N2C[C@@H]3CCC[C@@H]3[C@H]2C(=O)N1` [Example 94], the pIC50 in assay [1] and in assay [2] was greater than 7.00 in each case.

Regarding `CC(C)C[C@@H]1NC(=O)[C@@H](Cc2ccccc2)CCCCC[C@H]2CNC(=O)[C@H]2C[C@@H](C#N)NC1=O` [Example 50], the pIC50 in assay [1] and in assay [2] was 4.70 to 6.00 in each case.

For `CCC(C)(C)[C@@H]1NC(=O)[C@@H](NC(=O)OC(C)(C)C)CCCC[C@H]2CNC(=O)[C@H]2C[C@@H](C#N)NC1=O` [Example 145], the pIC50 in assay [1] and in assay [2] was 4.70 to 6.00 in each case.

Consider `CC(C)(C)OC(=O)N[C@H]1CCCC[C@H]2CNC(=O)[C@H]2C[C@@H](C#N)NC(=O)[C@@H]2[C@@H]3[C@H](CN2C1=O)C3(C)C` [Example 72], for which the pIC50 in assay [1] and in assay [2] was greater than 7.00 in each case.

For `CC(C)(C)C(=O)N[C@H]1CC/C=C/[C@H]2CNC(=O)[C@H]2C[C@@H](C#N)NC(=O)[C@@H]2[C@@H]3[C@H](CN2C1=O)C3(C)C` [Example 61], the pIC50 in assay [1] and in assay [2] was greater than 7.00 each time.

For the molecule `CC1(C(=O)N[C@H]2CCCC[C@H]3CNC(=O)[C@H]3C[C@@H](C#N)NC(=O)[C@@H]3[C@@H]4[C@H](CN3C2=O)C4(C)C)CCC1` [Example 118], the pIC50 was greater than 7.00 in assay [1] and 6.00 to 7.00 in assay [2].

On to `CC(C)(C)CC(=O)N[C@H]1CCCC[C@H]2CNC(=O)[C@H]2C[C@@H](C#N)NC(=O)[C@@H]2[C@@H]3[C@H](CN2C1=O)C3(C)C` [Example 73], for which the pIC50 in assay [1] and in assay [2] was greater than 7.00 each time.

With `CC(C)C[C@@H]1NC(=O)[C@@H](Cc2ccccc2)CCC[C@@H]2CNC(=O)[C@@H]2C[C@@H](C=O)NC1=O` [Example 9], the pIC50 in assay [1] was 6.00 to 7.00; in assay [2], 4.70 to 6.00.

With `CC1(C)[C@@H]2[C@H]3C(=O)N[C@H](C#N)C[C@@H]4C(=O)NC[C@@H]4CCCC[C@H](NC(=O)C45CCC(C4)C5)C(=O)N3C[C@@H]21` [Example 148], the results for the negative-log IC50 (pIC50) in assay [1] and in assay [2] were greater than 7.00 and 6.00 to 7.00, respectively.

With `N#C[C@@H]1C[C@@H]2C(=O)NC[C@@H]2CCCC[C@H](NC(=O)C2CC(F)(F)C2)C(=O)N2C[C@@H]3CCC[C@@H]3[C@H]2C(=O)N1` [Example 84], the figures for the pIC50 in assay [1] and in assay [2] were greater than 7.00 and 6.00 to 7.00, respectively.

Turning to `CC(C)(C)NC(=O)[C@H]1CCCC[C@H]2CNC(=O)[C@H]2C[C@@H](C#N)NC(=O)[C@@H]2[C@@H]3[C@H](CN2C1=O)C3(C)C` [Example 167], the pIC50 in assay [1] is 6.00 to 7.00; in assay [2] it was 4.70 to 6.00.

On to `CC(C)(C)C[C@@H]1NC(=O)[C@@H](NC(=O)c2ccc(Cl)c(Cl)c2)CCCC[C@H]2CNC(=O)[C@H]2C[C@@H](C#N)NC1=O` [Example 136], for which the pIC50 in assay [1] and in assay [2] was greater than 7.00 in each case.

With `CC(C)C[C@@H]1NC(=O)[C@@H](NC(=O)C(C)(C)C)CCCC[C@H]2CNC(=O)[C@H]2C[C@@H](C#N)NC1=O` [Example 44], the negative logarithm of the IC50 (pIC50) was greater than 7.00 in assay [1] and 6.00 to 7.00 in assay [2].

`CC1(C)[C@@H]2[C@H]3C(=O)N[C@H](C#N)C[C@@H]4C(=O)NC[C@@H]4/C=C/CC[C@H](NC(=O)C4CC(F)(F)C4)C(=O)N3C[C@@H]21` [Example 83]: the pIC50 in assay [1] and in assay [2] was greater than 7.00 in each case.

Turning to `N#C[C@@H]1C[C@@H]2C(=O)NC[C@@H]2CCCC[C@H](NC(=O)C(F)(F)F)C(=O)N2C[C@@H]3CCC[C@@H]3[C@H]2C(=O)N1` [Example 88], the pIC50 in assay [1] is greater than 7.00; in assay [2], 6.00 to 7.00.

Regarding `CC1(C)[C@@H]2[C@H]3C(=O)N[C@H](C#N)C[C@@H]4C(=O)NC[C@@H]4CCCC[C@H](NS(=O)(=O)c4ccc(F)cc4F)C(=O)N3C[C@@H]21` [Example 157], the negative logarithm of the IC50 (pIC50) in assay [1] and in assay [2] was greater than 7.00 throughout.

As to `CC1(C)C[C@H]2C(=O)N[C@H](C#N)C[C@@H]3C(=O)NC[C@@H]3CCCC[C@H](NC(=O)OC(C)(C)C)C(=O)N2C1` [Example 130], the pIC50 in assay [1] and in assay [2] was 6.00 to 7.00 throughout.

Turning to `CC(C)(C)CC(=O)N[C@H]1CCCC[C@H]2CCNC(=O)[C@H]2C[C@@H](C#N)NC(=O)[C@@H]2[C@H]3CCC[C@H]3CN2C1=O` [Example 95], the values for the pIC50 in assay [1] and in assay [2] were greater than 7.00 and 6.00 to 7.00, respectively.
